# Reference: patent publication US9486491B2, “Collagen peptide composition production method, DPP-4 inhibitor, and antihyperglycemic agent” (Nippi, Incorporated, priority 2012, dated 2016)
# Non-standard residues stand in square brackets, D forms with d. Residues, ends and D or L forms follow the SMILES beside them. No end group written: not given here. Hyp = O=C(O)[C@@H]1C[C@@H](O)CN1
# Molecular target: T1, DPP-4 (derived from porcine kidney) (Sus scrofa, UniProt P22411)
# T1 construct: purchased Sigma; host or cells: porcine kidney (tissue-derived enzyme)
# Test: DPP-4 inhibition rate / IC50 value measurement (Gly-Pro-MCA fluorescence)
# Format: biochemical
# Settings: individual oligopeptides
# Protocol: Thirty-five μl of sample solution obtained by dissolving a sample in 50 mM tris-hydrochloric acid buffer (pH 7.5) and 15 μl of DPP-4 (manufactured by Sigma, derived from porcine kidney; 8.6 mU/ml) that was dissolved in 50 mM tris-hydrochloric acid buffer (pH 7.5) were mixed in a microtiter plate well (manufactured by NUNC, trade name “237015”) and incubated at 37° C. for 10 minutes.
# To this, 50 μl of substrate solution (obtained by dissolving glycylproline-4-methylcoumarin-7-amide (Gly-Pro-MCA) in 50 mM tris-hydrochloric acid buffer (pH 7.5) at 10 μM) kept at 37° C. in advance was added and mixed to react at 37° C. for 20 minutes.
# The fluorescence intensity of 7-amino-4-methylcoumarin (AMC) released by DPP-4 was measured with time using a microplate reader-type fluorescence detector (manufactured by Corona Electric Co., Ltd., trade name “SH-9000”). As for the wavelength used for the measurement, the excitation wavelength was 380 nm and the measurement wavelength was 460 nm Instead of sample, 50 mM tris-hydrochloric acid buffer (pH 7.5) in an identical amount was employed as a control and the fluorescence intensity thereof was measured.
# The activity of DPP-4 was expressed in an average gradient of change in the amount of fluorescence intensity during a reaction time. As for a DPP-4 inhibition rate, difference was calculated by, with the control as 100%, subtracting the activity of sample from the above-mentioned control to use as the inhibition rate (%).
# According to the above method of measuring the DPP-4 inhibition rate, a 50% inhibitory concentration (IC50 value) of the DPP-4 activity in terms of one ml of reaction system was calculated by using the inhibition rates obtained by changing the concentration of sample.
# T1 sequence (P22411 whole entry): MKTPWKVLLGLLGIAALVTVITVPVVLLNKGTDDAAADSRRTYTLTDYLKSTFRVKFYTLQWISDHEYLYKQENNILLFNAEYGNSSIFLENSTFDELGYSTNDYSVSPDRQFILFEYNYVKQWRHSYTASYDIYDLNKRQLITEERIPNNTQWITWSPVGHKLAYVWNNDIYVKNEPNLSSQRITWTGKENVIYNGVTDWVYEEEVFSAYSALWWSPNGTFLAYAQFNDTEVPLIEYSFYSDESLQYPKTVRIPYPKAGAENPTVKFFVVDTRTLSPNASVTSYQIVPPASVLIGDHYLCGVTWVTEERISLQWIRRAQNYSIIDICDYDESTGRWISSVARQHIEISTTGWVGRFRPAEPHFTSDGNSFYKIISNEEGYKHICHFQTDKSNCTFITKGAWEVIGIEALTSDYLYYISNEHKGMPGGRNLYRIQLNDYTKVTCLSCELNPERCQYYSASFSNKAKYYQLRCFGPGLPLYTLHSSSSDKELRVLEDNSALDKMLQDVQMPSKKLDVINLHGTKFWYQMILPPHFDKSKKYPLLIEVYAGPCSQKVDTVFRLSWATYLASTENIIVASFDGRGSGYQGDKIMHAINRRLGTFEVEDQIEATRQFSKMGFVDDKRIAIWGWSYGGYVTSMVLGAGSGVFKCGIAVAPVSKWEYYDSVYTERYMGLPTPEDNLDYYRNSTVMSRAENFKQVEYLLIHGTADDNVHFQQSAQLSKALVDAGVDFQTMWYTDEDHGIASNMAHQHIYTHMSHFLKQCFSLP
row,IC50 value [mg/L],Molecule
1,150,CC[C@H](C)[C@H](N)C(=O)N1C[C@H](O)C[C@H]1C(=O)NCC(=O)O [IleHypGly] (H-Ile-[Hyp]-Gly-OH; N-terminus and C-terminus assumed)
2,390,CC(C)C[C@H](N)C(=O)N1C[C@H](O)C[C@H]1C(=O)NCC(=O)N1CCC[C@H]1C(=O)N[C@@H](C)C(=O)O [LeuHypGlyProAla] (H-L[Hyp]GPA-OH; N-terminus and C-terminus assumed)
3,39,CC(C)C[C@H](N)C(=O)N1C[C@H](O)C[C@H]1C(=O)NCC(=O)O [LeuHypGly] (H-Leu-[Hyp]-Gly-OH; N-terminus and C-terminus assumed)

# Further lines, the molecule ahead of its results:
row,Molecule,IC50 value [mg/L]
1,C[C@H](N)C(=O)N1C[C@H](O)C[C@H]1C(=O)NCC(=O)O [AlaHypGly] (H-Ala-[Hyp]-Gly-OH; N-terminus and C-terminus assumed),2450
2,GPIGPV [GlyProIleGlyProVal],5

# Test system: not listed separately
# Test: Glucose tolerance test in mice, blood glucose level
# Format: in vivo, C57BL/6J male mice
# Settings: 3 mg/kg oral one hour before glucose; 15 minutes after the administration of glucose
# Protocol: (1) Twenty-five C57BL/6J male mice at an age of eight weeks (Charles River Laboratories Japan) were subjected to habituation breeding for one week. For seven days prior to a glucose tolerance test, each mouse was given 0.25 ml of distilled water to acclimate to oral administration.
# (2) On the day before the glucose tolerance test, the mouse was fasted except for water for 18 hours starting at 16 o'clock. […] The five groups consist of a positive control group, collagen peptide composition administered groups (400 mg/kg, 1000 mg/kg, and 2000 mg/kg), and a negative control group.
# (i) The positive control group was orally administered sitagliptin (manufactured by MSD, Januvia) at 3 mg/kg one hour before administration of 20 w/v % glucose aqueous solution.
# (ii) The collagen peptide composition administered groups were orally administered the above peptide powder dissolved in distilled water to be a dose of 400 mg/kg, 1000 mg/kg, or 2000 mg/kg 15 minutes before the administration of glucose.
# (iii) The negative control group was orally administered 20 ml/kg of distilled water 15 minutes before the administration of glucose.
# (3) The glucose was administered. […]
# (4) After the administration of glucose, the blood was drawn from the tail at 15, 30, 60, and 120 minutes; and the blood glucose level was measured using a simple blood glucose measuring instrument (manufactured by Arkray Factory, GT-164). […]
row,Molecule,blood glucose level [mg/dL]
1,N[C@@H](CC(=O)N1CCn2c(nnc2C(F)(F)F)C1)Cc1cc(F)c(F)cc1F [sitagliptin],220
